Data taken from the NIST ThermoML archive (doi:10.1021/je3003404).

Test: mn = molality of the nth substance listed, in mol/kg
Conditions: 101 kPa, Liquid; for speed of sound: Sing-around technique in a fixed-path interferometer; for viscosity: Capillary tube (Ostwald / Ubbelohde) method; for electrical conductivity: Dip type conductivity cell; for mass density: Pycnometric method

CCCCCCCCCCCCCCCC[N+](C)(C)CC.[Br-] [ethylhexadecyldimethylammonium bromide] + O
Conditions | electrical conductivity [S/m] | mass density [kg/m3] | speed of sound [m/s] | viscosity [mPa·s]
308.15 K, m1 = 0.0016 | – | – | 1520.2 | –
308.15 K, m1 = 0.002 | – | – | 1520 | –
308.15 K, m1 = 0.0025 | – | – | 1520 | –
308.15 K, m1 = 0.003 | – | – | 1519.5 | –
313.15 K, m1 = 0.0002 | 0.00364 | 990.61 | 1528.8 | 0.641
313.15 K, m1 = 0.0005 | 0.00952 | 990.63 | 1529.9 | 0.6432
313.15 K, m1 = 0.0008 | 0.0153 | 990.67 | 1530.4 | 0.6469
313.15 K, m1 = 0.0012 | 0.0183 | 990.68 | 1531.2 | 0.6502
313.15 K, m1 = 0.0016 | 0.0187 | 990.69 | 1531.1 | 0.652
313.15 K, m1 = 0.002 | 0.0209 | 990.7 | 1530.9 | 0.6539
313.15 K, m1 = 0.0025 | 0.0224 | 990.72 | 1530.7 | 0.6558
313.15 K, m1 = 0.003 | 0.0243 | 990.73 | 1530.5 | 0.6576
318.15 K, m1 = 0.0002 | 0.00396 | 988.67 | 1537.1 | 0.582
318.15 K, m1 = 0.0005 | 0.0107 | 988.68 | 1538.2 | 0.5832
318.15 K, m1 = 0.0008 | 0.0171 | 988.7 | 1538.5 | 0.587
318.15 K, m1 = 0.0012 | 0.021 | 988.73 | 1539.4 | 0.5903
318.15 K, m1 = 0.0016 | 0.023 | 988.74 | 1539.2 | 0.5922
318.15 K, m1 = 0.002 | 0.025 | 988.75 | 1539 | 0.5935
318.15 K, m1 = 0.0025 | 0.0265 | 988.76 | 1538.8 | 0.5954
318.15 K, m1 = 0.003 | 0.028 | 988.78 | 1538.6 | 0.5971
323.15 K, m1 = 0.0002 | – | 986.71 | 1541.7 | 0.5274
323.15 K, m1 = 0.0005 | – | 986.72 | 1542.8 | 0.5298
323.15 K, m1 = 0.0008 | – | 986.74 | 1543.5 | 0.5334
323.15 K, m1 = 0.0012 | – | 986.76 | 1544.5 | 0.5357
323.15 K, m1 = 0.0016 | – | 986.78 | 1544.3 | 0.5384
323.15 K, m1 = 0.002 | – | 986.79 | 1544.1 | 0.5398
323.15 K, m1 = 0.0025 | – | 986.8 | 1544 | 0.5413
323.15 K, m1 = 0.003 | – | 986.81 | 1543.8 | 0.5426
